Laboratory results as given in patent US20120225062A1 (priority 2011, published 2012).

tested on: KMS11 (human myeloma cell line); experiment: Cell Proliferation Assay (CellTiter-Glo, 3 days); format: cell-based; settings: KMS-11, 72 h, KMS11-luc cells
Description: KMS11 (human myeloma cell line), were cultured in IMDM supplemented with 10% FBS, sodium pyruvate and antibiotics. Cells were plated in the same medium at a density of 2000 cells per well into 96 well tissue culture plates, with outside wells vacant, on the day of assay.
Test compounds supplied in DMSO were diluted into DMSO at 500 times the desired final concentrations before dilution into culture media to 2 times final concentrations. Equal volumes of 2× compounds were added to the cells in 96 well plates and incubated at 37° C. for 3 days.
After 3 days plates were equilibrated to room temperature and equal volume of CellTiter-Glow Reagent (Promega) was added to the culture wells. The plates were agitated briefly and luminescent signal was measured with luminometer.
Using the procedures of Cell Proliferation Assay, the EC50 concentrations of compounds of the examples were determined in KMS11 cells as shown in Table 4.

Structure (SMILES) | EC50
C[C@H]1C[C@@H](c2ccncc2NC(=O)c2ccc(F)c(-c3c(F)cc(C4(C#N)CCOCC4)cc3F)n2)C[C@@H](N)[C@@H]1O [Example 171, N-(4-((1R,3R,4R,5S)-3-amino-4-hydroxy-5-methylcyclohexyl)pyridin-3-yl)-6-(4-(4-cyanotetrahydro-2H-pyran-4-yl)-2,6-difluorophenyl)-5-fluoropicolinamide] | 77 nM
C[C@H]1C[C@@H](c2ccncc2NC(=O)c2ccc(F)c(-c3c(F)cc(C4(F)CCOCC4)cc3F)n2)C[C@@H](N)[C@@H]1O [Example 127, N-(4-((1R,3R,4R,5S)-3-amino-4-hydroxy-5-methylcyclohexyl)pyridin-3-yl)-6-(2,6-difluoro-4-(4-fluorotetrahydro-2H-pyran-4-yl)phenyl)-5-fluoropicolinamide] | 59 nM
C[C@H]1CN(c2ccncc2NC(=O)c2ccc(F)c(-c3c(F)cc(F)cc3F)n2)C[C@@H](N)[C@@H]1O [Example 218, N-(4-((3R,4R,5S)-3-amino-4-hydroxy-5-methylpiperidin-1-yl)pyridin-3-yl)-5-fluoro-6-(2,4,6-trifluorophenyl)picolinamide] | 23 nM
C[C@@H]1C[C@H](N)C[C@H](c2ccncc2NC(=O)c2ccc(F)c(-c3c(F)cc(C4(O)CCOCC4)cc3F)n2)C1 [Example 121, N-(4-((1R,3S,5S)-3-amino-5-methylcyclohexyl)pyridin-3-yl)-6-(2,6-difluoro-4-(4-hydroxytetrahydro-2H-pyran-4-yl)phenyl)-5-fluoropicolinamide] | 27 nM
CCC(=O)c1cc(F)c(-c2nc(C(=O)Nc3cnccc3[C@H]3C[C@@H](N)[C@H](O)[C@@H](C)C3)ccc2F)c(F)c1 [Example 157, N-(4-((1R,3R,4R,5S)-3-amino-4-hydroxy-5-methylcyclohexyl)pyridin-3-yl)-6-(2,6-difluoro-4-propionylphenyl)-5-fluoropicolinamide] | 68 nM
C[C@H]1C[C@@H](c2ccncc2NC(=O)c2ccc(F)c(-c3c(F)cc(C4(O)CCOCC4)cc3F)n2)C[C@@H](N)[C@@H]1O [Example 122, N-(4-((1R,3R,4R,5S)-3-amino-4-hydroxy-5-methylcyclohexyl)pyridin-3-yl)-6-(2,6-difluoro-4-(4-hydroxytetrahydro-2H-pyran-4-yl)phenyl)-5-fluoropicolinamide] | 83 nM
CC(C)(C#N)c1cc(F)c(-c2nc(C(=O)Nc3cnccc3[C@@H]3CCC[C@H](N)C3)ccc2F)c(F)c1 [Example 167, N-(4-((1R,3S)-3-aminocyclohexyl)pyridin-3-yl)-6-(4-(2-cyanopropan-2-yl)-2,6-difluorophenyl)-5-fluoropicolinamide] | 409 nM
CCc1cc(F)c(-c2nc(C(=O)Nc3cnccc3[C@@H]3C[C@H](C)C[C@H](N)C3)ccc2F)c(F)c1 [Example 230, N-(4-((1R,3S,5S)-3-amino-5-methylcyclohexyl)pyridin-3-yl)-6-(4-ethyl-2,6-difluorophenyl)-5-fluoropicolinamide] | 62 nM
C[C@H]1C[C@@H](c2ccncc2NC(=O)c2ccc(F)c(-c3c(F)cc(C(F)F)cc3F)n2)C[C@@H](N)[C@@H]1O [Example 58, N-(4-((1R,3R,4R,5S)-3-amino-4-hydroxy-5-methylcyclohexyl)pyridin-3-yl)-6-(4-(difluoromethyl)-2,6-difluorophenyl)-5-fluoropicolinamide] | 42 nM
C[C@H]1C[C@@H](c2ccncc2NC(=O)c2ccc(F)c(-c3c(F)cc([S@+](C)[O-])cc3F)n2)C[C@@H](N)[C@@H]1O [Example 27, N-(4-((1R,3R,4R,5S)-3-amino-4-hydroxy-5-methylcyclohexyl)pyridin-3-yl)-6-(2,6-difluoro-4-((S)-methylsulfinyl)phenyl)-5-fluoropicolinamide] | 90 nM
C[C@H]1C[C@@H](c2ccncc2NC(=O)c2ccc(F)c(-c3c(F)cc(C4COC4)cc3F)n2)C[C@@H](N)[C@@H]1O [Example 56, N-(4-((1R,3R,4R,5S)-3-amino-4-hydroxy-5-methylcyclohexyl)pyridin-3-yl)-6-(2,6-difluoro-4-(oxetan-3-yl)phenyl)-5-fluoropicolinamide] | 31 nM
